Non-standard residues stand in square brackets, D forms with d. Residues, ends and D or L forms follow the SMILES beside them. tBuAla = CC(C)(C)C[C@H](N)C(=O)O; Chg = N[C@H](C(=O)O)C1CCCCC1; Ac6c = NC1(C(=O)O)CCCCC1; Nle = CCCC[C@H](N)C(=O)O; Orn = NCCC[C@H](N)C(=O)O; Dab = NCC[C@H](N)C(=O)O; Nva = CCC[C@H](N)C(=O)O; Abu = CC[C@H](N)C(=O)O; Dap = NC[C@H](N)C(=O)O; Ahp = NCCCCCCC(=O)O
Target: T1, recombinant human vWF-A1 domain (Homo sapiens, UniProt P07359)
T1 construct: whole blood drawn from voluntary donors; made in house; host or cells: E. coli (vWF-A1); washed platelets from human donor blood (GPIb, endogenous)
Test: Static human platelet adhesion to recombinant human vWF-A1 domain
Type: cell-based
Conditions: washed calcein AM labeled human platelets, static conditions, 1.5 h adhesion; read-out: Activity (IC50 for inhibition of the binding of platelets to vWF A1 domain)
Experimental: The activity of compounds of the formula I can be shown by procedures known in the art, for example by determining their inhibition of the binding of platelets to vWF A1 domain in an appropriate assay. To this end, assay plates can be coated with vWF-A1 domain. […] Then fluorescence-labeled thrombocytes are added and incubated for 90 minutes. In a complex washing procedure all non-bound thrombocytes are removed and the plates are measured, for example in a laser-based reader Acumen Explorer or a bulk reader like Spectramax. […] To assess the effect of compounds on the interaction of the GPIb complex on platelets with vWF, an assay system was used measuring binding of human platelets to recombinant human vWF-A1 domain under static conditions in the presence and absence of the compounds. […] Platelet rich plasma was carefully removed, transferred to a fresh container and spun down for 15 min at 120 g. Platelet rich plasma was carefully transferred again to fresh containers, PGE1 (0.5 μg/ml, Sigma) was added and the suspension was allowed to rest for 5 min. This was followed by another centrifugation step for 15 min at 360 g. The supernatant was discarded and the cell pellets were carefully resuspended in tyrode buffer (NaCl, 137 mM (Sigma S-3014); KCl, 2.7 mM (Sigma P-9541); NaHCO3,12 mM ([…] 31437); NaH2PO4×2H2O, 0.36 mM (Merck 6345); […] After 5 min of resting the suspension was spun down for 15 min at 300 g. The supernatant was discarded and the pellets were carefully resuspended in TBS buffer (Tris-HCl, 50 mM (Fluka 93371); NaCl, 120 mM (Sigma S-3014); KCl, 2.7 mM (Sigma P-9541); CaCl2, 0.05 mM (Sigma C-3306); MgCl2×6 H2O, 2 mM (Sigma M-2670); […] The platelet count was adjusted to 2×10^5 cells/μl, and the suspensions from individual donors were pooled at this stage. The platelets were allowed to rest for 30 min at room temperature before calcein AM (2.5 μM per 2×10^5 cells/μl (Molecular Probes C-3099)) was added. This was followed by 15 min incubation in the dark. Cells were diluted to 5×10^4 cells/μl and ReoPro (3 μg/ml (Centocor B. V., Leiden, N L)) was added, followed by a 10 min incubation period in the dark before adding the platelets to the assay plates. 96 well plates (Greiner hb, black, clear bottom, F, 655097) were coated with human recombinant vWF-A1 domain (1.5 μg/well, AA 475-706, expressed in E. coli) in Tris buffer (pH 7.4; Tris-HCl, 25 mM; NaCl, 150 mM) and incubated for 1 h at room temperature. After washing the wells 3× with TBS, blocking buffer (TBS with 5% BSA) was added followed by an incubation for 1 h. The wells were washed again 3× with TBS before 200 μl TBS were added to each well, preventing them from drying out. TBS was flicked out and serial dilutions of the test compound were added. The washed and calcein AM labeled thrombocytes were added to the wells (2.5×10^6 cells/well). Following an adhesion period of 1.5 h in the dark the wells were washed 3× with TBS. Measurement of fluorescence per well was performed in a SpectraMax M5 reader (Molecular Devices). From the raw data % inhibition and IC50 values were calculated.

T1 sequence (P07359 17-652): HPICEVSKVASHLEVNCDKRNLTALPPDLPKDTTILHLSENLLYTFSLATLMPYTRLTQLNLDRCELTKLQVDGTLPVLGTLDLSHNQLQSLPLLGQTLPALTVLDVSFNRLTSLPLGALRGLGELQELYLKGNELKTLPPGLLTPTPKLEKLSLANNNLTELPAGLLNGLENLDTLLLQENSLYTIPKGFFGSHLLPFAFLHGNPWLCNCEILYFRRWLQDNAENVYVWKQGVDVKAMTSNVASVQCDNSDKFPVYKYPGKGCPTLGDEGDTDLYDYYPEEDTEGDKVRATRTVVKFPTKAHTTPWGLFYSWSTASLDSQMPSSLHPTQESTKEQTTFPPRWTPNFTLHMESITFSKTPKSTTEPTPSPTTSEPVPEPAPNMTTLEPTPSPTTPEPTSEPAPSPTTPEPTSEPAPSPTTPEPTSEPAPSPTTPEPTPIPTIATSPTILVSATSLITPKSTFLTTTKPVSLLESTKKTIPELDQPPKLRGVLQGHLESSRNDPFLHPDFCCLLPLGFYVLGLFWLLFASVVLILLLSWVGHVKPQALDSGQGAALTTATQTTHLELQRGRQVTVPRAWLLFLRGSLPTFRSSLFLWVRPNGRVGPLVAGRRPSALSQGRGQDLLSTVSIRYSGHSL
T1 sequence (P13224 26-206 partner): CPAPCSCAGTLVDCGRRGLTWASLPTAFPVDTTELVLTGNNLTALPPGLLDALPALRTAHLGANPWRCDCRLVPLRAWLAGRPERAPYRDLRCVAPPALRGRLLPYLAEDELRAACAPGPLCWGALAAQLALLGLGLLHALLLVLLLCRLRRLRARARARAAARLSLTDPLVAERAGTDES
T1 sequence (P14770 17-177 partner): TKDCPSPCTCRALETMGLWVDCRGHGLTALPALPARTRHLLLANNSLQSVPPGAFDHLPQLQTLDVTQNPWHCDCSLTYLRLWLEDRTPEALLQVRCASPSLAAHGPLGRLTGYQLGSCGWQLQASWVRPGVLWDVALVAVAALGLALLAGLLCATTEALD

Row | Compound | IC50
1 | CSCC[C@@H]1NC(=O)[C@H](CCCNC(=N)N)NC(=O)[C@H](CCC(=O)O)NC(=O)[C@H](CCN)NC(=O)CCCCCCNC(=O)[C@H](CC(C)C)NC(=O)[C@H](CC(N)=O)NC(=O)[C@H](Cc2c[nH]cn2)NC(=O)[C@H](CC(C)C)NC(=O)[C@H](C)NC1=O [Example 24, Cyclo[Leu-His-Asn-Leu-NH—(CH2)6—CO-Dbu-Glu-Arg-Met-Ala]] (cyclo(ALHNL[Ahp][Dab]ERM)) | < 1000 nM
2 | CSCC[C@@H]1NC(=O)[C@H](CCCNC(=N)N)NC(=O)[C@H](CCC(=O)O)NC(=O)[C@H](CCC(N)=O)NC(=O)CCCCCCNC(=O)[C@H](CC(C)C)NC(=O)[C@H](CC(N)=O)NC(=O)[C@H](Cc2c[nH]cn2)NC(=O)[C@H](CC(C)C)NC(=O)[C@H](C)NC1=O [Example 25, Cyclo[Leu-His-Asn-Leu-NH—(CH2)6—CO-Gln-Glu-Arg-Met-Ala]] (cyclo(ALHNL[Ahp]QERM)) | < 1000 nM
3 | CSCC[C@@H]1NC(=O)[C@H](CCCN)NC(=O)[C@H](CCC(=O)O)NC(=O)[C@H]([C@@H](C)O)NC(=O)CCCCCCNC(=O)[C@H](CC(C)C)NC(=O)[C@H](CC(N)=O)NC(=O)[C@H](Cc2c[nH]cn2)NC(=O)[C@H](CC(C)C)NC(=O)[C@H](C)NC1=O [Example 28, Cyclo[Leu-His-Asn-Leu-NH—(CH2)6—CO-Thr-Glu-Orn-Met-Ala]] (cyclo(ALHNL[Ahp]TE[Orn]M)) | < 1000 nM
4 | CSCC[C@@H]1NC(=O)[C@H](CN)NC(=O)[C@H](CCC(=O)O)NC(=O)[C@H]([C@@H](C)O)NC(=O)CCCCCCNC(=O)[C@H](CC(C)C)NC(=O)[C@H](CC(N)=O)NC(=O)[C@H](Cc2c[nH]cn2)NC(=O)[C@H](CC(C)C)NC(=O)[C@H](C)NC1=O [Example 29, Cyclo[Leu-His-Asn-Leu-NH—(CH2)6—CO-Thr-Glu-Dpr-Met-Ala]] (cyclo(ALHNL[Ahp]TE[Dap]M)) | 1000 to 10000 nM
5 | CSCC[C@@H]1NC(=O)[C@H](CCCNC(=N)N)NC(=O)[C@H](CCC(=O)O)NC(=O)[C@H]([C@@H](C)O)NC(=O)CCCCCCNC(=O)[C@H](CC(C)C)NC(=O)[C@H](CC(N)=O)NC(=O)[C@H](Cc2c[nH]cn2)NC(=O)[C@H](CC(C)C)NC(=O)[C@H](CCCNC(=N)N)NC1=O [Example 30, Cyclo[Leu-His-Asn-Leu-NH—(CH2)6—CO-Thr-Glu-Arg-Met-Arg]] (cyclo([Ahp]TERMRLHNL)) | 1000 to 10000 nM
6 | CCC[C@@H]1NC(=O)[C@H](CCSC)NC(=O)[C@H](CCCNC(=N)N)NC(=O)[C@H](CCC(=O)O)NC(=O)[C@H]([C@@H](C)O)NC(=O)CCCCCCNC(=O)[C@H](CC(C)C)NC(=O)[C@H](CC(N)=O)NC(=O)[C@H](Cc2c[nH]cn2)NC(=O)[C@H](CC(C)C)NC1=O [Example 31, Cyclo[Leu-His-Asn-Leu-NH—(CH2)6—CO-Thr-Glu-Arg-Met-Nva]] (cyclo([Ahp]TERM[Nva]LHNL)) | 1000 to 10000 nM
7 | CSCC[C@@H]1NC(=O)[C@H](CCCNC(=N)N)NC(=O)[C@H](CCC(=O)O)NC(=O)[C@H]([C@@H](C)O)NC(=O)CCCCCCNC(=O)[C@H](CC(C)C)NC(=O)[C@H](CC(N)=O)NC(=O)[C@H](Cc2c[nH]cn2)NC(=O)[C@H](CC(C)C)NC(=O)[C@H](CN)NC1=O [Example 32, Cyclo[Leu-His-Asn-Leu-NH—(CH2)6—CO-Thr-Glu-Arg-Met-Dpr]] (cyclo([Ahp]TERM[Dap]LHNL)) | < 1000 nM
8 | CSCC[C@@H]1NC(=O)[C@H](CCCNC(=N)N)NC(=O)[C@H](CCC(=O)O)NC(=O)[C@H]([C@@H](C)O)NC(=O)CCCCCCNC(=O)[C@H](CC(C)C)NC(=O)[C@H](CC(N)=O)NC(=O)[C@@H](Cc2c[nH]cn2)NC(=O)[C@H](CC(C)C)NC(=O)[C@H](C)NC1=O [Example 33, Cyclo[Leu-D-His-Asn-Leu-NH—(CH2)6—CO-Thr-Glu-Arg-Met-Ala]] (cyclo(AL[dH]NL[Ahp]TERM)) | 1000 to 10000 nM
9 | CSCC[C@@H]1NC(=O)[C@H](CCCNC(=N)N)NC(=O)[C@H](CCC(=O)O)NC(=O)[C@H]([C@@H](C)O)NC(=O)CCCCCCNC(=O)[C@H](CC(C)C)NC(=O)[C@H](CC(N)=O)NC(=O)[C@H](CCCN)NC(=O)[C@H](CC(C)C)NC(=O)[C@H](C)NC1=O [Example 34, Cyclo[Leu-Orn-Asn-Leu-NH—(CH2)6—CO-Thr-Glu-Arg-Met-Ala]] (cyclo(AL[Orn]NL[Ahp]TERM)) | 1000 to 10000 nM
10 | CSCC[C@@H]1NC(=O)[C@H](CCCNC(=N)N)NC(=O)[C@H](CCC(=O)O)NC(=O)[C@H]([C@@H](C)O)NC(=O)CCCCCCNC(=O)[C@H](CC(C)C)NC(=O)[C@H](CC(N)=O)NC(=O)[C@H](Cc2c[nH]cn2)NC(=O)[C@H](CC(C)(C)C)NC(=O)[C@H](C)NC1=O [Example 36, Cyclo[Npg-His-Asn-Leu-NH—(CH2)6—CO-Thr-Glu-Arg-Met-Ala]] (cyclo(A[tBuAla]HNL[Ahp]TERM)) | < 1000 nM
11 | CSCC[C@@H]1NC(=O)[C@H](CCCNC(=N)N)NC(=O)[C@H](CCC(=O)O)NC(=O)[C@H]([C@@H](C)O)NC(=O)CCCCCCNC(=O)[C@H](CC(C)C)NC(=O)[C@H](CC(N)=O)NC(=O)[C@H](Cc2c[nH]cn2)NC(=O)C2(CCCCC2)NC(=O)[C@H](C)NC1=O [Example 37, Cyclo[Ac6-His-Asn-Leu-NH—(CH2)6—CO-Thr-Glu-Arg-Met-Ala]] (cyclo(A[Ac6c]HNL[Ahp]TERM)) | 1000 to 10000 nM
12 | CC(C)C[C@@H]1NC(=O)[C@H](C)NC(=O)[C@H](CC(C)C)NC(=O)[C@H](CCCNC(=N)N)NC(=O)[C@H](CCC(=O)O)NC(=O)[C@H]([C@@H](C)O)NC(=O)CCCCCCNC(=O)[C@H](CC(C)C)NC(=O)[C@H](CC(N)=O)NC(=O)[C@H](Cc2c[nH]cn2)NC1=O [Example 38, Cyclo[Leu-His-Asn-Leu-NH—(CH2)6—CO-Thr-Glu-Arg-Leu-Ala]] (cyclo(ALHNL[Ahp]TERL)) | < 1000 nM
13 | CC(C)C[C@@H]1NC(=O)[C@H](C)NC(=O)[C@H](C2CCCCC2)NC(=O)[C@H](CCCNC(=N)N)NC(=O)[C@H](CCC(=O)O)NC(=O)[C@H]([C@@H](C)O)NC(=O)CCCCCCNC(=O)[C@H](CC(C)C)NC(=O)[C@H](CC(N)=O)NC(=O)[C@H](Cc2c[nH]cn2)NC1=O [Example 39, Cyclo[Leu-His-Asn-Leu-NH—(CH2)6—CO-Thr-Glu-Arg-Chg-Ala]] (cyclo(ALHNL[Ahp]TER[Chg])) | 1000 to 10000 nM
14 | CC(C)C[C@@H]1NC(=O)[C@H](C)NC(=O)[C@H](C)NC(=O)[C@H](CCCNC(=N)N)NC(=O)[C@H](CCC(=O)O)NC(=O)[C@H]([C@@H](C)O)NC(=O)CCCCCCNC(=O)[C@H](CC(C)C)NC(=O)[C@H](CC(N)=O)NC(=O)[C@H](Cc2c[nH]cn2)NC1=O [Example 40, Cyclo[Leu-His-Asn-Leu-NH—(CH2)6—CO-Thr-Glu-Arg-Ala-Ala]] (cyclo(AALHNL[Ahp]TER)) | < 1000 nM
15 | CC(C)C[C@@H]1NC(=O)[C@H](C)NC(=O)[C@H](CCC(N)=O)NC(=O)[C@H](CCCNC(=N)N)NC(=O)[C@H](CCC(=O)O)NC(=O)[C@H]([C@@H](C)O)NC(=O)CCCCCCNC(=O)[C@H](CC(C)C)NC(=O)[C@H](CC(N)=O)NC(=O)[C@H](Cc2c[nH]cn2)NC1=O [Example 41, Cyclo[Leu-His-Asn-Leu-NH—(CH2)6—CO-Thr-Glu-Arg-Gln-Ala]] (cyclo(ALHNL[Ahp]TERQ)) | < 1000 nM
16 | CC[C@@H]1NC(=O)[C@H](CCCNC(=N)N)NC(=O)[C@H](CCC(=O)O)NC(=O)[C@H]([C@@H](C)O)NC(=O)CCCCCCNC(=O)[C@H](CC(C)C)NC(=O)[C@H](CC(N)=O)NC(=O)[C@H](Cc2c[nH]cn2)NC(=O)[C@H](CC(C)C)NC(=O)[C@H](C)NC1=O [Example 42, Cyclo[Leu-His-Asn-Leu-NH—(CH2)6—CO-Thr-Glu-Arg-Abu-Ala]] (cyclo(ALHNL[Ahp]TER[Abu])) | < 1000 nM
17 | CCCC[C@@H]1NC(=O)[C@H](CCCNC(=N)N)NC(=O)[C@H](CCC(=O)O)NC(=O)[C@H]([C@@H](C)O)NC(=O)CCCCCCNC(=O)[C@H](CC(C)C)NC(=O)[C@H](CC(N)=O)NC(=O)[C@H](Cc2c[nH]cn2)NC(=O)[C@H](CC(C)C)NC(=O)[C@H](C)NC1=O [Example 43, Cyclo[Leu-His-Asn-Leu-NH—(CH2)6—CO-Thr-Glu-Arg-Nle-Ala]] (cyclo(ALHNL[Ahp]TER[Nle])) | < 1000 nM

From US9073975B2, “Cyclic peptides, their preparation and their use as inhibitors of the platelet adhesion” (SANOFI, priority 2010, dated 2015)
